{"source": "paper PMC5057104", "about": "“The unravelling of the complex pattern of tyrosinase inhibition” (Scientific Reports, 2016)", "key": {"[1]": {"target": "T1, TyrBm (tyrosinase from Bacillus megaterium) (Priestia megaterium, UniProt B2ZB02)", "T1 sequence (B2ZB02 1-297)": "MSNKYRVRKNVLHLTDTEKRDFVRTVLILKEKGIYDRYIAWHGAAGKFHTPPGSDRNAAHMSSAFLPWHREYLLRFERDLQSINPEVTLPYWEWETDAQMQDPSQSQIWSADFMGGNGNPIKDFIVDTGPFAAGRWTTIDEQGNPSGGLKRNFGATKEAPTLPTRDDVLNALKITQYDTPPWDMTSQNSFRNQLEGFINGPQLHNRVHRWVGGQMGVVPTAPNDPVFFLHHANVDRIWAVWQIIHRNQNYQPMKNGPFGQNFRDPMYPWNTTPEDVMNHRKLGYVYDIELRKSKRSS", "description": "The formation of HBP was monitored by measuring the absorbance at 475 nm[26].\nBatel Deria,§, Margarita Kanteeva,§, Mor Goldfedera, Daniel Lecinab, Victor Guallarb,c,\nNoam Adird, and Ayelet Fishmana,†\npresence of reducing agents measured at 475 nm.\nincreasing concentrations of L-dopa (0-3 mM).\nas the substrate in the presence of increasing concentrations of H2O2 (0-90 mM).\nreactions contained 6 µg ml-1 of purified TyrBm, 50 mM PBS buffer pH 7.4 and 0.01 mM\n(§1) (1 picture or pasted object on this page, not shown here)"}, "[2]": {"target": "T1, TyrBm (tyrosinase from Bacillus megaterium)", "experiment": "biochemical", "method": "Tyrosinase inhibitory activity was determined spectrophotometrically in 96-well plates with a final volume of 200 μl. First, 50 mM PBS buffer pH 7.4 and 0.01 mM CuSO4 were mixed with 6 μg ml^−1 of purified enzyme. Then, the mixture was incubated at 40 °C for 2 minutes. […] Specific activity was calculated as the ratio of the conversion rate and the total protein content as determined by the Bradford analysis method (Bio-Rad, Israel). All measurements were performed in seven replicates."}, "[3]": {"test_system": "Agaricus bisporus tyrosinase", "settings": "HQ as substrate; cited from earlier work"}, "mushroom tyrosinase": {"target": "mushroom tyrosinase", "settings": "cited from earlier work"}, "[4]": {"target": "T1, TyrBm (tyrosinase from Bacillus megaterium)", "experiment": "Kinetic analysis of tyrosinase (Lineweaver-Burk plots)", "assay_type": "biochemical", "set-up": "made in house; host or cells: Escherichia coli BL21", "description": "All measurements were performed in seven replicates.\nThe inhibitor concentrations were mentioned above. The inhibition kinetics module of Sigma Plot 13.0 software was used (Systat Software, Inc., Richmond, CA, USA). All measurements were performed in 5-replicates."}, "[5]": {"target": "T1, TyrBm (tyrosinase from Bacillus megaterium)", "experiment": "biochemical", "assay_type": "binding", "set-up": "made in house; host or cells: Escherichia coli BL21", "description": "TyrBm was labeled fluorescently with a RED dye (NT-647-NHS) according to the manufacturer’s protocol (NanoTemper Technologies, Munich, Germany). Non-bound dye was removed by purification of the enzyme on a Sephadex G-25 column with buffers provided in the commercial kit. […] Approximately 10 μl of sample was loaded into hydrophilic monolith NT capillaries and the measurement was performed in a NanoTemper Monolith NT.015T instrument. The emission of the red fluorescence was recorded at a focused location of the capillary. In the same location, a microscopic temperature gradient was created using an infrared laser and the fluorescence depletion was measured. According to changes in the fluorescent thermophoresis signal and the concentrations of unlabeled inhibitor, the dissociation constant values were determined by the NanoTemper analysis software.\n(b) Titration of rising concentrations of\n(c) Titration of rising concentrations of L-tyrosine (0-\nThe reactions contained constant concentration of TyrBm\nas §1"}, "[6]": {"target": "T1, TyrBm (tyrosinase from Bacillus megaterium)", "settings": "1 mM L-dopa", "description": "Measurements were carried out using a Hansatech Oxygraph+ electrode (Norfolk, UK) in a reaction volume of 1000 μL.\n(a) Spectrophotometric recordings measured at 475 nm. All measurements were performed in heptaplicates. (b) Oxygen consumption recordings. The inset presents the oxygen […]\nmeasurements were performed in triplicates. The reactions contained 4 µg ml-1 of purified […]\nThe slopes representing the activity rate are given for each graph.\nas §1"}}, "note": "Values joined by “and” are separate entries in the source; they are usually repeats but may differ in a detail not shown here. Equal values may be shown once. “Also recorded” adds a separate entry of the source. Read-outs that look alike come from different tables or passages of the source.", "data": [{"smiles": "Oc1ccc(O)cc1", "note": "[HQ, hydroquinone]", "values": [{"measurement": "Vmax", "setting": "[1]; HQ as substrate in the presence of H2O2 (100 mM)", "value": 19, "unit": "µmol/min/mg"}, {"measurement": "activity of TyrBm with L-dopa and HQ higher than with L-dopa alone", "setting": "[1]; absorbance readings at 475 nm, 1 mM L-dopa, 0.1 mM HQ", "value": 17, "unit": "%"}, {"measurement": "TyrBm activity with HQ as a sole substrate", "setting": "[1]; several hours, without H2O2 or L-dopa, visual, vs control without enzyme", "value": "low activity was visually observed"}, {"measurement": "IC50", "setting": "[2]", "value": "32 ± 2", "unit": "µM"}, {"measurement": "Km", "setting": "[3]", "value": 250, "unit": "µM"}, {"measurement": "IC50 with L-dopa higher in comparison to L-tyrosine", "setting": "mushroom tyrosinase", "value": 80, "unit": "fold"}, {"measurement": "Ki", "setting": "mushroom tyrosinase; competitive, ref 25 Chawla et al.", "value": 83, "unit": "µM"}, {"measurement": "IC50", "setting": "mushroom tyrosinase; monophenols", "value": 33.5, "unit": "µM"}, {"measurement": "Inhibition mode", "setting": "[4]; diphenolase activity, substrate L-dopa", "value": "no inhibition; also recorded: does not inhibit"}, {"measurement": "Inhibition mode", "setting": "[4]; monophenolase activity, substrate L-tyrosine", "value": "competitive"}, {"measurement": "Ki", "setting": "[4]; substrate L-tyrosine", "value": "40 ± 10", "unit": "µM"}, {"measurement": "Vmax (apparent, in presence of inhibitor)", "setting": "[4]; substrate L-tyrosine", "value": "9.0 µmol/min/mg and 9.0 ± 0.5 µmol/min/mg"}, {"measurement": "kcat (in presence of inhibitor)", "setting": "[4]; substrate L-tyrosine", "value": 5.3, "unit": "s⁻¹"}, {"measurement": "Kd", "setting": "[5]", "value": "9 ± 1", "unit": "µM"}, {"measurement": "dissociation constant higher than L-tyrosine", "setting": "[5]", "value": 90, "unit": "fold"}, {"measurement": "activity of TyrBm with L-dopa and HQ higher than with L-dopa alone", "setting": "[6]; oxygen consumption measurements, 0.1 mM HQ", "value": 8, "unit": "%"}, {"measurement": "effect on TyrBm activity on L-dopa", "setting": "[6]; spectrophotometric and oxygen consumption recordings, 0.1 mM compound", "value": "enhances activity"}]}, {"smiles": "N[C@@H](Cc1ccc(O)cc1)C(=O)O", "note": "[L-tyrosine]", "values": [{"measurement": "Kd", "setting": "[5]; read-out: KD", "value": "0.1 ± 0.03", "unit": "µM"}]}, {"smiles": "O=c1cccccc1O", "note": "[Tropolone]", "values": [{"measurement": "Inhibition mode", "setting": "mushroom tyrosinase", "value": "mixed"}]}]}
